Reference: US8101648B2, “Hydroxybenzamide derivatives and their use as inhibitors of HSP90” (Astex Therapeutics, Ltd., priority 2005, dated 2012)
Counter-ions that a name gives are not always drawn. Like-named read-outs stand apart in the source and are kept apart here.

Experiments:
[1] = target: T1, human Hsp90α N-terminal domain (Homo sapiens, UniProt P07900); test: Isothermal titration calorimetry (ITC) binding; conditions: 25 mM Tris, 100 mM NaCl, 1 mM MgCl2, 1 mM TCEP, 5% DMSO, pH 7.4
T1 construct: Cloning, expression, and purification of the Human Hsp90α N-terminal domain were performed according to published methods; made in house
Experimental: The ability of the compounds of the invention to bind to human Hsp90 proteins was determined using isothermal titration calorimetry.
Isothermal titration calorimetry (ITC) experiments were performed with a VP-ITC titration calorimeter (Microcal Inc., Northampton, Mass., USA). […] All solutions were filtered and degassed prior to a titration being carried out. The enthalpy change resulting from each injection of ligand was obtained through integration of the calorimetric signal. Data were analysed using Origin 7.0 (Microcal Software Inc., Northampton, Mass.). Heats of dilution were estimated using the final injections of each individual titration and subtracted before data fitting. Different ITC experimental formats were employed in order to obtain compound dissociation constants (Kd's) over a wide range of affinities. […] In this type of experiment the stoichiometry parameter (N) was locked at 1 for data fitting. […] For the majority of these experiments the protein concentration in the calorimetric cell was in the range […] and the ligand concentration in the injection syringe ranged from […].

[2] = tested on: HCT116 cell line; test: Anti-proliferative activity, Alamar Blue assay; format: cell-based, human
Experimental: The anti-proliferative activities of compounds of the invention can be determined by measuring the ability of the compounds to inhibition of cell growth in a number of cell lines such as the human colon cancer cell line HCT116. […] The method is based on the ability of viable cells to reduce resazurin to its fluorescent product resorufin. […] The number of viable cells is determined by Alamar Blue assay as before. Cell lines can be obtained from the ECACC (European Collection of cell Cultures).

[3] = HCT-116, human colon cancer cell line HCT116, 72 hours with compound, read-out: IC50

| Kd [1] [nM] | IC50 [2, 3] [nM] | SMILES | IC50 ([2]; Homo sapiens, HCT-116, 72 h) [nM] |
| --- | --- | --- | --- |
| < 100 | < 1000 | COc1ccc2c(c1)CN(C(=O)c1cc(C(C)C)c(O)cc1O)C2 [Example 40, (2,4-dihydroxy-5-isopropyl-phenyl)-(5-methoxy-1,3-dihydro-isoindol-2-yl)-methanone] |  |
|  | < 1000 | O=C(c1cc(Br)c(O)cc1O)N1Cc2ccccc2C1 [Example 19, (5-Bromo-2,4-dihydroxy-phenyl)-(1,3-dihydro-isoindol-2-yl)-methanone] |  |
| < 1000 |  | CC(C)(C)c1cc(C(=O)N2CCc3ccccc3C2)ccc1O [Example 11, (3-tert-Butyl-4-hydroxy-phenyl)-(3,4-dihydro-1H-isoquinolin-2-yl)-methanone] |  |
| < 1000 | < 1000 | CC(C)c1cc(C(=O)N2Cc3ccc(-c4ccc(N5CCNCC5)cc4)cc3C2)c(O)cc1O [Example 52, (2,4-dihydroxy-5-isopropyl-phenyl)-[5-(4-piperazin-1-yl-phenyl)-1,3-dihydro-isoindol-2-yl]-methanone] |  |
| < 100 | < 1000 | CC(C)c1cc(C(=O)N2Cc3ccc(N4CCN(CCO)CC4)cc3C2)c(O)cc1O [Example 59, (2,4-Dihydroxy-5-isopropyl-phenyl)-{5-[4-(2-hydroxy-ethyl)-piperazin-1-yl]-1,3-dihydro-isoindol-2-yl}-methanone] |  |
| < 100 |  | CC(C)c1cc(C(=O)N2Cc3ccc(C(=O)O)cc3C2)c(O)cc1O [Example 44, 2-(2,4-dihydroxy-5-isopropyl-benzoyl)-2,3-dihydro-1H-isoindole-5-carboxylic acid] |  |
| < 100 | < 1000 | CC(C)c1cc(C(=O)N2Cc3ccc(CN4CCN(C)CC4)cc3C2)c(O)cc1O [Example 55, (2,4-dihydroxy-5-isopropyl-phenyl)-[5-(4-methyl-piperazin-1-ylmethyl)-1,3-dihydro-isoindol-2-yl]-methanone] |  |
| < 100 | < 1000 | CC(C)c1cc(C(=O)N2CCc3ccccc3C2)c(O)cc1O [Example 38, (3,4-dihydro-1H-isoquinolin-2-yl)-(2,4-dihydroxy-5-isopropyl-phenyl)-methanone] |  |
| < 100 | < 1000 | COC(=O)c1ccc2c(c1)CN(C(=O)c1cc(C(C)C)c(O)cc1O)C2 [Example 43, 2-(2,4-dihydroxy-5-isopropyl-benzoyl)-2,3-dihydro-1H-isoindole-5-carboxylic acid methyl ester] |  |
| < 100 | < 1000 | CC(C)c1cc(C(=O)N2Cc3ccc(N4CCN(C(C)C)CC4)cc3C2)c(O)cc1O [Example 62, (2,4-Dihydroxy-5-isopropyl-phenyl)-[5-(4-isopropyl-piperazin-1-yl)-1,3-dihydro-isoindol-2-yl]-methanone] |  |
| < 100 | < 1000 | CC(C)c1cc(C(=O)N2Cc3cccc(NC4CCNCC4)c3C2)c(O)cc1O [Example 67, (2,4-dihydroxy-5-isopropyl-phenyl)-[4-(piperidin-4-ylamino)-1,3-dihydro-isoindol-2-yl]-methanone] |  |
| < 100 | < 1000 | COCCOCCOc1cccc2c1CN(C(=O)c1cc(C(C)C)c(O)cc1O)C2 [Example 21, (2,4-Dihydroxy-5-isopropyl-phenyl)-{4-[2-(2-methoxy-ethoxy)-ethoxy]-1,3-dihydro-isoindol-2-yl}methanone] |  |

Further lines, the molecule ahead of its results:

| SMILES | Kd [1] [nM] | IC50 [2, 3] [nM] | IC50 ([2]; Homo sapiens, HCT-116, 72 h) [nM] |
| --- | --- | --- | --- |
| CC(C)c1cc(C(=O)N2Cc3ccc(C4(O)CCNCC4)cc3C2)c(O)cc1O [Example 73, (2,4-Dihydroxy-5-isopropyl-phenyl)-[5-(4-hydroxypiperidin-4-yl)-1,3-dihydro-isoindol-2-yl]-methanone] | < 100 |  |  |
| CC(C)c1cc(C(=O)N2Cc3ccc(CN4CCCCC4)cc3C2)c(O)cc1O [Example 72, (2,4-Dihydroxy-5-isopropyl-phenyl)-(5-piperidin-1-ylmethyl-1,3-dihydro-isoindol-2-yl)-methanone] | < 100 | < 1000 |  |
| CC(C)c1cc(C(=O)N2Cc3ccc(OCCNC(=O)CN4CCOCC4)cc3C2)c(O)cc1O [Example 49] | < 100 | < 1000 |  |
| CC(C)c1cc(C(=O)N2Cc3ccc(N)cc3C2)c(O)cc1O [Example 39, (5-amino-1,3-dihydro-isoindol-2-yl)-(2,4-dihydroxy-5-isopropyl-phenyl)-methanone] | < 100 | < 1000 |  |
| CC(C)NCCOc1ccc2c(c1)CN(C(=O)c1cc(C(C)C)c(O)cc1O)C2 [Example 48, (2,4-dihydroxy-5-isopropyl-phenyl)-[5-(2-isopropylamino-ethoxy)-1,3-dihydro-isoindol-2-yl]-methanone] | < 100 | < 1000 |  |
| CC(C)c1cc(C(=O)N2Cc3ccc(N4CCC(N5CCN(C)CC5)CC4)cc3C2)c(O)cc1O [Example 51, (2,4-dihydroxy-5-isopropyl-phenyl)-{5-[4-(4-methyl-piperazin-1-yl)-piperidin-1-yl]-1,3-dihydro-isoindol-2-yl}-methanone] | < 100 | < 1000 |  |
| CC(C)c1cc(C(=O)N2Cc3ccc(C(=O)N4CCNCC4)cc3C2)c(O)cc1O [Example 54, (2,4-dihydroxy-5-isopropyl-phenyl)-[5-(piperazine-1-carbonyl)-1,3-dihydro-isoindol-2-yl]-methanone hydrochloride] | < 100 |  | < 1000 |
| CN1CCN(c2ccc3c(c2)CN(C(=O)c2cc(Cl)c(O)cc2O)C3)CC1 [Example 75, (5-Chloro-2,4-dihydroxy-phenyl)-[5-(4-methyl-piperazin-1-yl)-1,3-dihydro-isoindol-2-yl]-methanone] | < 100 | < 1000 |  |
| CC(C)c1cc(C(=O)N2CC3CC2CO3)c(O)cc1O (stereo not shown) [Example 37, (2,4-dihydroxy-5-isopropyl-phenyl)-(2-oxa-5-aza-bicyclo[2.2.1]hept-5-yl)-methanone] | < 100 | < 1000 |  |
| CC(C)c1cc(C(=O)N2Cc3ccc(N4CCC(N5CCOCC5)CC4)cc3C2)c(O)cc1O [Example 60, (2,4-Dihydroxy-5-isopropyl-phenyl)-[5-(4-morpholin-4-yl-piperidin-1-yl)-1,3-dihydro-isoindol-2-yl]-methanone] | < 100 | < 1000 |  |
| CC(C)c1cc(C(=O)N2Cc3ccccc3C2)ccc1O [Example 10, (1,3-Dihydro-isoindol-2-yl)-(4-hydroxy-3-isopropyl-phenyl)-methanone] | < 100 |  |  |
| COc1cc2c(cc1Cl)CN(C(=O)c1cc(C(C)C)c(O)cc1O)C2 [Example 33, (5-chloro-6-methoxy-1,3-dihydro-iso-indol-2-yl)-(2,4-dihydroxy-5-isopropyl-phenyl)-methanone] | < 100 | < 1000 |  |
| CC(C)c1cc(C(=O)N2Cc3cc(O)c(Cl)cc3C2)c(O)cc1O [Example 74, (5-chloro-6-hydroxy-1,3-dihydro-isoindol-dihydroxy-5-isopropyl-phenyl)-methanone] | < 100 | < 1000 |  |
| CC(C)c1cc(C(=O)N2Cc3ccccc3C2)c(O)cc1O [Example 5] |  |  | < 1000 |
